Results on two compounds are retold here after patent publication US9505834B2, “Methods for controlling the galactosylation profile of recombinantly-expressed proteins” (AbbVie Inc., priority 2011, dated 2016).

Holding throughout (assay type): cell-based, Chinese Hamster
The subject of assay [1] is adalimumab-producing CHO cell line. Description: Example 1 oligosaccharide analysis, batch shake flasks, CDM GIA-1. On the procedure: The studies were performed in either a batch process in shake flasks or a fed-batch process in 3 L bioreactors.
Growth and production media for the adalimumab-producing CHO cell line were prepared using a proprietary Life Technologies Gibco chemically defined media, GIA-1. […] All media were filtered through Corning 0.5 L or 1 L filter systems 0.22 μm Poly(Ether Sulfone) (PES) and stored at 4° C. until use.
The cell line utilized for both studies was generated from the adalimumab-producing CHO cell utilized in Example 3 by adapting it to chemically defined GIA-1 media for 7 (2 to 3 day each) passages in a combination of 250 mL and 500 mL Corning vented non-baffled shake flasks before freezing.
Upon thaw, for the batch shake flask study, cells were expanded for 3 to 5 (2 to 3 day each) passages in a combination of 250 mL and 500 mL Corning vented non-baffled shake flasks. Production cultures were initiated in duplicate 500 mL Corning vented non-baffled shake flasks (200 mL working volume) at an initial viable cell density (VCD) of approximately 0.5×10^6 cells/mL. Cultures were maintained on orbital shakers at 110 revolutions per minute (RPM) in a dry incubator at 35° C. and 5% CO2. The shake flask study was run in an extended batch mode by feeding a glucose solution (1.25% (v/v) of 40% solution) when the media glucose concentration fell below 3 g/L.
(§1) For all studies with CHO cell lines described throughout this invention, samples were collected daily and measured for cell density and viability using a Cedex cell counter. Retention samples for titer analysis via Poros A method were collected by centrifugation at 12,000 RPM for 5 min when the culture viability began declining. The cultures were harvested by collecting 125 mL aliquots and centrifuging at 3,000 RPM for 30 min when culture viability was near or below 50%. All supernatants were stored at −80° C. until analysis.
(§2) For all studies, the harvest samples were Protein A purified and prepared for the oligosaccharide assay using the following procedures. As a first step in the process of establishing the identity and quantifying the oligosaccharides, they are released from the protein by enzymatic digestion with N-glycanase. Once the glycans are released, the free reducing end of each glycan is labeled by reductive amination with a fluorescent tag, 2-aminobenzamide (2-AB). The resulting labeled glycans are separated by normal-phase HPLC (NP-HPLC) in acetonitrile: 50 mM ammonium formate, pH 4.4, and detected by a fluorescence detector. Quantitation is based on the relative area percent of detected sugars. Throughout this invention, the relative area percentages of the agalactosyl fucosylated biantennary oligosaccharides, denoted as NGA2F+NGA2F-GlcNAc sum, and the galactose-containing fucosylated biantennary oligosaccharides NA1F+NA2F sum are reported and discussed.
Galactose was supplemented at the following levels in production media: 0, 10, 20, 40, and 100 mM. […] Culture growth, productivity, and product quality data for control cultures is the average of the 3 experiments.

Assay [2] deals with CHO cell line producing mAb #2. Description: Example 8 oligosaccharide analysis, CDM GIA-1, fed-batch 3 L bioreactors. As for the experimental part:
as §1, §2
Growth and production media for the mAb #2 producing CHO cell line were prepared using the proprietary Life Technologies Gibco chemically defined media, GIA-1.
Upon thaw, cells were expanded in Corning vented non-baffled shake flasks maintained on orbital shakers at 140 RPM, and in 10 L cell bags (2 L working volume) maintained at 25 RPM, 7° angle, 0.25 SLPM airflow in a dry incubator at 36° C. and 5% CO2. Production cultures were initiated in 3 L bioreactors (1.5 L initial working volume) at 36° C., 25% dissolved oxygen, 200 RPM, and pH 7.0. The chemically-defined feed from Life Technologies Gibco JCL-5 was added as follows: 3% (v/v)—day 3, 5%—day 5, 7%—day 7, 10%—day 9, and 10%—day 11. […] Bioreactors were harvested at viability of approximately 70% or below or on production day 15, whichever condition occurred first.
Galactose was supplemented at 0, 15, 30, and 60 mM concentrations in both production and feed media.

In assay [3] the test system is adalimumab-producing CHO cell line #3. Nature of the assay: Example 5 oligosaccharide analysis, CDM GIA-1, fed-batch 3 L bioreactors. On the procedure: as §1, §2
Growth and production media for the adalimumab-producing CHO cell line #3 were prepared using the proprietary Life Technologies Gibco chemically defined media, GIA-1.
Upon thaw, cells were expanded in Corning vented non-baffled shake flasks maintained on orbital shakers at 140 RPM, and in 10 L cell bags (2 L working volume) maintained at 25 RPM, 7° angle, and 0.25 SLPM airflow in a dry incubator at 36° C. and 5% CO2. Production cultures were initiated in 3 L bioreactors (1.4 L initial working volume) at 36° C., 30% dissolved oxygen, 200 RPM, and pH 6.9±0.2. A fixed split ratio of cells to media of 1:6.7 was utilized to initiate the production stage cultures. A temperature shift was performed when the culture VCD reached a value higher than 5×10^6 cells/mL. The chemically-defined feed from Life Technologies Gibco JCL-5 was added as follows: 4% (v/v)—day 2, 6%—day 4, 8%—day 6, 10%—day 8, and 10%—day 10. […] Bioreactors were harvested at a viability of approximately 50% or on production day 17, whichever condition occurred first.
Galactose was supplemented at 0 and 30 mM concentrations in both production and feed media.

[4] abbreviates: 100 μM manganese chloride alone.
Where [5] appears, read: manganese chloride alone, range 0 to 75 μM.
[6] abbreviates: 0.2 μM manganese chloride alone.

For `O=C[C@H](O)[C@@H](O)[C@@H](O)[C@H](O)CO` [galactose, D(+)Galactose], the “decrease in the NGA2F+NGA2F-GlcNac sum” value in assay [1] (40 mM galactose alone) was 6%. For the same compound, in assay [1] (100 mM galactose alone), the “maximum change in the NA1F+NA2F oligosaccharides” value turned out to be 7% and the “maximum change in the NGA2F+NGA2F-GlcNac” value was found to be 7%. In addition, in assay [2] (15 mM galactose alone), the “decrease in the NGA2F+NGA2F-GlcNac sum” value was 7%. The “decrease in the NGA2F+NGA2F-GlcNac sum” value in assay [2] (30 mM galactose alone) was found to be 12%. In addition, in assay [2] (galactose alone up to 60 mM), the “maximum decrease in the NGA2F+NGA2F-GlcNac sum” value worked out at 12% and the “maximum increase in the NA1F+NA2F sum” value was found to be 11%. In addition, in assay [3] (30 mM galactose alone), the “decrease in the NGA2F+NGA2F-GlcNac sum” value came to 4% and the “increase in the NA1F+NA2F sum” value is 3%.
For “Manganese (II) Chloride [manganese chloride]”, the “decrease in the NGA2F+NGA2F-GlcNac sum” value in assay [1] (40 μM manganese chloride alone) came to 6%. Besides, in assay [1] (setting [4]), the “maximum change in the NA1F+NA2F oligosaccharides” value amounted to 8% and the “maximum change in the NGA2F+NGA2F-GlcNac” value is given as 9%. For the same compound, in assay [2] (25 μM manganese chloride alone), the “decrease in the NGA2F+NGA2F-GlcNac sum” value is reported as 10%. The “decrease in the NGA2F+NGA2F-GlcNac sum” value in assay [2] (50 μM manganese chloride alone) was 18%. Also, in assay [2] (setting [5]), the “maximum decrease in the NGA2F+NGA2F-GlcNac sum” value stood at 18% and the “maximum increase in the NA1F+NA2F sum” value stood at 16%. Moreover, in assay [3] (setting [6]), the “decrease in the NGA2F+NGA2F-GlcNac sum” value was 15% and the “increase in the NA1F+NA2F sum” value is 16%. In assay [3] (1 μM manganese chloride alone), the “increase in the NA1F+NA2F oligosaccharides” value was 28% and the “maximum decrease in the NGA2F+NGA2F-GlcNac” value is 26%.
